Measured values: US20260193264A1, “BENZOYPARAZINE PYRAZINES AND THEIR USES” (FOGHORN THERAPEUTICS INC., priority 2022, published 2026)

Legend:
[1] = biological target: T1, HiBit-BRG1 fusion protein in stable HeLa cell line expressing HiBit-BRG1 and LgBit (Homo sapiens, UniProt P51532); assay: HiBiT-BRG1 cell-based degradation assay (Nano-Glo HiBiT, 24 h); conditions: HeLa HiBit-BRG1/LgBit cells; for DC50: read-out: BRMG1 HiBit Degradation IC50; for Dmax: top dose 30 μM, read-out: BRG1 HiBit Degradation Maximum (%)
T1 construct: expressed in transfected cells
T1 sequence (P51532 whole entry, the tested form may be a part): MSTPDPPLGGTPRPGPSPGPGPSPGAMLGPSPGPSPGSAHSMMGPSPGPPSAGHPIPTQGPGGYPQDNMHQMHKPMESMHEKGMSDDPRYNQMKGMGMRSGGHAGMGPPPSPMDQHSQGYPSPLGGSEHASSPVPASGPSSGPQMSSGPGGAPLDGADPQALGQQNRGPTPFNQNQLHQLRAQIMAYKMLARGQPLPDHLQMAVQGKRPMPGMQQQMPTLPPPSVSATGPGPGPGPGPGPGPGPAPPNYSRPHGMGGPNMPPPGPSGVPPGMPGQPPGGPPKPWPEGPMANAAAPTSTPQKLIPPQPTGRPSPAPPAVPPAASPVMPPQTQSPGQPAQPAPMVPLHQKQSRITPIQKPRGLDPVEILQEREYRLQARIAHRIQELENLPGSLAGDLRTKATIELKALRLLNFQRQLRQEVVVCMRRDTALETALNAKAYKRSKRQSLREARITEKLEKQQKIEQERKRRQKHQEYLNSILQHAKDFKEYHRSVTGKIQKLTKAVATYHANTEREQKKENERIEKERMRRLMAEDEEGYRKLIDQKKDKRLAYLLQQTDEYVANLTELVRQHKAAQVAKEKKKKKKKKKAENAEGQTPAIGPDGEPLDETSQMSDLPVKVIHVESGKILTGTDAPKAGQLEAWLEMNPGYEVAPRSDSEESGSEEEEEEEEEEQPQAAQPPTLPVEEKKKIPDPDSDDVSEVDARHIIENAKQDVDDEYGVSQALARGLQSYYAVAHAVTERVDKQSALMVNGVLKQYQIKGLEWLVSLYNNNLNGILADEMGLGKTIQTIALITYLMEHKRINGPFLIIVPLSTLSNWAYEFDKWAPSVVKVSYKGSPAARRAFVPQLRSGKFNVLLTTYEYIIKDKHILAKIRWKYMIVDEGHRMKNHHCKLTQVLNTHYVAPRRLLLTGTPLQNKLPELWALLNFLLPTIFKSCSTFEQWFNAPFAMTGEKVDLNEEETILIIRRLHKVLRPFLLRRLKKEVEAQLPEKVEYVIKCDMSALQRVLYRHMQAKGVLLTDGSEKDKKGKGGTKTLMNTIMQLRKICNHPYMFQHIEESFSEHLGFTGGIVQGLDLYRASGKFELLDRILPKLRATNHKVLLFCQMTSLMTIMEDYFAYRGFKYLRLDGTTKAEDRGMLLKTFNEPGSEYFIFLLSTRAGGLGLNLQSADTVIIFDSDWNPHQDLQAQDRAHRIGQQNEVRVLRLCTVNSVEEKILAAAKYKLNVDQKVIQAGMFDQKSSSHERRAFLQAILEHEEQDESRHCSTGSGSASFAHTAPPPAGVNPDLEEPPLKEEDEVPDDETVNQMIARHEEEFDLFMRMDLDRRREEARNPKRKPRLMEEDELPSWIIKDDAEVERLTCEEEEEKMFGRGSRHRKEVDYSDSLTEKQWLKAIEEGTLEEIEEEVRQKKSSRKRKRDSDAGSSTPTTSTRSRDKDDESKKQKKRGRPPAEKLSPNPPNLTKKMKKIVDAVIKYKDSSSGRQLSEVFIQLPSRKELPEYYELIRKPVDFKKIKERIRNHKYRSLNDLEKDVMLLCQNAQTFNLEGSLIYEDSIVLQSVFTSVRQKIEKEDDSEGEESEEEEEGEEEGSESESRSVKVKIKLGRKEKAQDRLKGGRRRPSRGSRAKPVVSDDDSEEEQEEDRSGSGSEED
Procedure, shortened: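 Degradation calculated from NanoBiT luminescence relative to DMSO-treated cells (high) and cells given 2 μM known BRM/BRG1 degrader (low). HeLa cells stably expressing HiBiT-BRG1 plus LgBiT were exposed to compound for 24 h before lytic HiBiT detection.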

[2] = biological target: T2, HiBiT-BRM fusion protein in stable HeLa cell line (Homo sapiens, UniProt P51531); assay: HiBiT-BRM cell-based degradation assay (Nano-Glo HiBiT Lytic Detection, 24 h); set-up: DC50: scale not given here; conditions: HeLa HiBiT-BRM cells; for DC50: read-out: BRM HiBit Degradation IC50; for BRM HiBit Degradation Maximum (%): top dose 30 μM
T2 construct: expressed in transfected cells
T2 sequence (P51531 whole entry, the tested form may be a part): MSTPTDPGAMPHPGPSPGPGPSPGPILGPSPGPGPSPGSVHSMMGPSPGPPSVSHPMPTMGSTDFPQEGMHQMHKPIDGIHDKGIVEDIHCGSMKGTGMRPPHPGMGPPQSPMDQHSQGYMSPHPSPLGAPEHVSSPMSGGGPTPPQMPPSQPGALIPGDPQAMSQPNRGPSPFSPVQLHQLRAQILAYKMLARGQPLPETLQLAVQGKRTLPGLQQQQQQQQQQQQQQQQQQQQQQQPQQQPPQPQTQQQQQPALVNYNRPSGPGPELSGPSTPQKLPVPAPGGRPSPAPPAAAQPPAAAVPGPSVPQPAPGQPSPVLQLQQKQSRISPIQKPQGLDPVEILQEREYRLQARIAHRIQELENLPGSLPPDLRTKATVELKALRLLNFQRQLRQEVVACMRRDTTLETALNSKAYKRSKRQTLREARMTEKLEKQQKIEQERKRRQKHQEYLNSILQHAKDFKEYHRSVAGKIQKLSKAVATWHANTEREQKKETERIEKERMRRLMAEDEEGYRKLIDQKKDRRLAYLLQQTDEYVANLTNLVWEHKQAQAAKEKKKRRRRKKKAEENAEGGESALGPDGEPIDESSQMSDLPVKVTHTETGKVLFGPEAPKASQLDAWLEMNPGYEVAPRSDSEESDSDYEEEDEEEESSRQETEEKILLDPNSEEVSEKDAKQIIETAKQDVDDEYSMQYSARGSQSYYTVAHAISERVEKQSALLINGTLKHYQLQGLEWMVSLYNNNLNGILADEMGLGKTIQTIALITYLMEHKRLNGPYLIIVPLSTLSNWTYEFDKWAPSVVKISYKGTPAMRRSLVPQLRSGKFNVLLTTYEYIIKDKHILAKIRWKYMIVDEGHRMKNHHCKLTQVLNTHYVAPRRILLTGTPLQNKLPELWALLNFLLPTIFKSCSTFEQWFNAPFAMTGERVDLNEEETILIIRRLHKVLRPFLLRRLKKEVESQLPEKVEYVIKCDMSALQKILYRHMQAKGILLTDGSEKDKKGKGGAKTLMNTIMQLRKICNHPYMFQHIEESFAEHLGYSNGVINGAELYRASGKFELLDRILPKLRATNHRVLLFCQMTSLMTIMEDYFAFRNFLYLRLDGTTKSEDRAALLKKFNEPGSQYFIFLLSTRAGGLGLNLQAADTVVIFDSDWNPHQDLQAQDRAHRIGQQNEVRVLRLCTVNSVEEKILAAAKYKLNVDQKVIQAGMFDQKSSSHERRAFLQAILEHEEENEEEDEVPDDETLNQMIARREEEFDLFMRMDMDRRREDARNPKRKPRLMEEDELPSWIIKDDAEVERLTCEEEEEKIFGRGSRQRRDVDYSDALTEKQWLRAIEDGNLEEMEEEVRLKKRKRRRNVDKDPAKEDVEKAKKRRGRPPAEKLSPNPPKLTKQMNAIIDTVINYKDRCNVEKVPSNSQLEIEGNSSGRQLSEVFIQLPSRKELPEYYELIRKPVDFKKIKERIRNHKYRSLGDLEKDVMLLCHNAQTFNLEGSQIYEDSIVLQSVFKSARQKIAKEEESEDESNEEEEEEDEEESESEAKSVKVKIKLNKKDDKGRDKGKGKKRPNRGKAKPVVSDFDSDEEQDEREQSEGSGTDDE
Procedure, shortened: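 HeLa stably expressing HiBiT-BRM; 24 h compound exposure, 10-pt 3-fold dilution from 30 μM final, duplicates. Lytic LgBiT complementation, luminescence. % degradation vs DMSO (HC) and 2 μM known BRM/BRG1 degrader (LC).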

Compound	DC50 [1] [nM]	Dmax [1] [%]	DC50 [2] [nM]	BRM HiBit Degradation Maximum (%) [2]
Cc1ncsc1-c1ccc([C@H](C)NC(=O)[C@@H]2C[C@@H](O)CN2C(=O)C(C(C)C)n2cc(N3CCCC4(CCN(c5ccc6cc(-c7ccccc7O)nnc6c5)CC4)C3)nn2)cc1 (stereo partly drawn) [Compound 251, (2S,4R)-4-hydroxy-1-(2-(4-(9-(3-(2-hydroxyphenyl)cinnolin-7-yl)-2,9-diazaspiro[5.5]undecan-2-yl)-1H-1,2,3-triazol-1-yl)-3-methylbutanoyl)-N-((S)-1-(4-(4-methylthiazol-5-yl)phenyl)ethyl)pyrrolidine-2-carboxamide]	< 10	> 75	< 10	A (“A” indicates maximum degradation ≥75%)
Cc1ncsc1-c1ccc([C@H](C)NC(=O)[C@@H]2C[C@@H](O)CN2C(=O)[C@@H](c2cc(N3CC4(CC(c5cc6nnc(-c7ccccc7O)cc6cc5C5CC5)C4)C3)no2)C(C)C)cc1 [Compound 252, (2S,4R)-1-((R)-2-(3-(6-(6-cyclopropyl-3-(2-hydroxyphenyl)cinnolin-7-yl)-2-azaspiro[3.3]heptan-2-yl)isoxazol-5-yl)-3-methylbutanoyl)-4-hydroxy-N-((S)-1-(4-(4-methylthiazol-5-yl)phenyl)ethyl)pyrrolidine-2-carboxamide]	< 10	> 75	< 10	A (“A” indicates maximum degradation ≥75%)
Cc1ncsc1-c1ccc([C@H](C)NC(=O)[C@@H]2C[C@@H](O)CN2C(=O)[C@@H](c2cc(N3CC4(C3)CN(c3cc5nnc(-c6ccccc6O)cc5cc3OC3CC3)C4)no2)C(C)C)cc1 [Compound 253, (2S,4R)-1-((R)-2-(3-(6-(6-cyclopropoxy-3-(2-hydroxyphenyl)cinnolin-7-yl)-2,6-diazaspiro[3.3]heptan-2-yl)isoxazol-5-yl)-3-methylbutanoyl)-4-hydroxy-N-((S)-1-(4-(4-methylthiazol-5-yl)phenyl)ethyl)pyrrolidine-2-carboxamide]	< 10	> 75	< 10	A (“A” indicates maximum degradation ≥75%)
C#Cc1ccc([C@H](C)NC(=O)[C@@H]2C[C@@H](O)CN2C(=O)[C@H](C(C)C)n2cc(N3CC4(CN(c5ccc6cc(-c7ccccc7O)nnc6c5)C4)C3)nn2)cc1 [Compound 254, (2S,4R)-N-((S)-1-(4-ethynylphenyl)ethyl)-4-hydroxy-1-((S)-2-(4-(6-(3-(2-hydroxyphenyl)cinnolin-7-yl)-2,6-diazaspiro[3.3]heptan-2-yl)-1H-1,2,3-triazol-1-yl)-3-methylbutanoyl)pyrrolidine-2-carboxamide]		< 50	< 10	A (“A” indicates maximum degradation ≥75%)
C#Cc1ccc(CNC(=O)[C@@H]2C[C@@H](O)CN2C(=O)[C@H](C(C)C)n2cc(N3CC4(CN(c5ccc6cc(-c7ccccc7O)nnc6c5)C4)C3)nn2)cc1 [Compound 255, (2S,4R)-N-(4-ethynylbenzyl)-4-hydroxy-1-((S)-2-(4-(6-(3-(2-hydroxyphenyl)cinnolin-7-yl)-2,6-diazaspiro[3.3]heptan-2-yl)-1H-1,2,3-triazol-1-yl)-3-methylbutanoyl)pyrrolidine-2-carboxamide]		< 50	< 10	A (“A” indicates maximum degradation ≥75%)
Cc1ncsc1-c1ccc([C@H](C)NC(=O)[C@@H]2C[C@@H](O)CN2C(=O)[C@@H](c2cc(N3CCC(N4CC5(CN(Cc6ccc7nnc(-c8ccccc8O)cc7c6)C5)C4)CC3)no2)C(C)C)cc1 [Compound 256, (2S,4R)-4-hydroxy-1-((R)-2-(3-(4-(6-((3-(2-hydroxyphenyl)cinnolin-6-yl)methyl)-2,6-diazaspiro [3.3]heptan-2-yl)piperidin-1-yl)isoxazol-5-yl)-3-methylbutanoyl)-N-((S)-1-(4-(4-methylthiazol-5-yl)phenyl)ethyl)pyrrolidine-2-carboxamide]	> 10	> 75	> 100	B (“B” indicates maximum degradation ≥50%)
Cc1ncsc1-c1ccc([C@@H](C)NC(=O)[C@H]2C[C@H](O)CN2C(=O)[C@H](C(C)C)n2cc(N3CC4(CN(c5ccc6nnc(-c7ccccc7O)cc6c5)C4)C3)cn2)cc1 [Compound 258, (2R,4S)-4-hydroxy-1-[(2S)-2-(4-{6-[3-(2-hydroxyphenyl)cinnolin-6-yl]-2,6-diazaspiro[3.3]heptan-2-yl}pyrazol-1-yl)-3-methylbutanoyl]-N-[(1R)-1-[4-(4-methyl-1,3-thiazol-5-yl)phenyl]ethyl]pyrrolidine-2-carboxamide]	> 10	> 50	> 10	A (“A” indicates maximum degradation ≥75%)
Cc1ncsc1-c1ccc([C@H](C)NC(=O)[C@@H]2C[C@@H](O)CN2C(=O)C(C(C)C)n2cc(N3CCC(CN4CCN(c5ccc6cc(-c7ccccc7O)nnc6c5)CC4)CC3)nn2)cc1 (stereo partly drawn) [Compound 259, (2S,4R)-4-hydroxy-1-(2-(4-(4-((4-(3-(2-hydroxyphenyl)cinnolin-7-yl)piperazin-1-yl)methyl)piperidin-1-yl)-1H-1,2,3-triazol-1-yl)-3-methylbutanoyl)-N-((S)-1-(4-(4-methylthiazol-5-yl)phenyl)ethyl)pyrrolidine-2-carboxamide]	> 10	> 75	< 10	A (“A” indicates maximum degradation ≥75%)
Cc1ncsc1-c1ccc([C@H](C)NC(=O)[C@@H]2C[C@@H](O)CN2C(=O)C(C(C)C)n2cc(N3CCN(CC4CCCN(c5ccc6cc(-c7ccccc7O)nnc6c5)C4)CC3)nn2)cc1 (stereo partly drawn) [Compound 260, (2S,4R)-4-hydroxy-1-(2-(4-(4-((1-(3-(2-hydroxyphenyl)cinnolin-7-yl)piperidin-3-yl)methyl)piperazin-1-yl)-1H-1,2,3-triazol-1-yl)-3-methylbutanoyl)-N-((S)-1-(4-(4-methylthiazol-5-yl)phenyl)ethyl)pyrrolidine-2-carboxamide]	> 10	> 75	> 10	A (“A” indicates maximum degradation ≥75%)
Cc1ncsc1-c1ccc([C@H](C)NC(=O)[C@@H]2C[C@@H](O)CN2C(=O)C(C(C)C)n2cc(N3CCCC(CN4CCN(c5ccc6cc(-c7ccccc7O)nnc6c5)CC4)C3)nn2)cc1 (stereo partly drawn) [Compound 261, (2S,4R)-4-hydroxy-1-(2-(4-(3-((4-(3-(2-hydroxyphenyl)cinnolin-7-yl)piperazin-1-yl)methyl)piperidin-1-yl)-1H-1,2,3-triazol-1-yl)-3-methylbutanoyl)-N-((S)-1-(4-(4-methylthiazol-5-yl)phenyl)ethyl)pyrrolidine-2-carboxamide]	> 10	> 75	> 10	A (“A” indicates maximum degradation ≥75%)
Cc1ncsc1-c1ccc([C@H](C)NC(=O)[C@@H]2C[C@@H](O)CN2C(=O)C(C(C)C)n2cc(N3CCC4(CCCN4c4ccc5cc(-c6ccccc6O)nnc5c4)C3)nn2)cc1 (stereo partly drawn) [Compound 262, (2S,4R)-4-hydroxy-1-(2-(4-(1-(3-(2-hydroxyphenyl)cinnolin-7-yl)-1,7-diazaspiro[4.4]nonan-7-yl)-1H-1,2,3-triazol-1-yl)-3-methylbutanoyl)-N-((S)-1-(4-(4-methylthiazol-5-yl)phenyl)ethyl)pyrrolidine-2-carboxamide]	> 100	> 50	> 100	A (“A” indicates maximum degradation ≥75%)
Cc1ncsc1-c1ccc([C@H](C)NC(=O)[C@@H]2C[C@@H](O)CN2C(=O)C(C(C)C)n2cc(N3CCC4C(C3)CN4c3ccc4cc(-c5ccccc5O)nnc4c3)nn2)cc1 (stereo partly drawn) [Compound 263, (2S,4R)-4-hydroxy-1-(2-(4-(7-(3-(2-hydroxyphenyl)cinnolin-7-yl)-3,7-diazabicyclo[4.2.0]octan-3-yl)-1H-1,2,3-triazol-1-yl)-3-methylbutanoyl)-N-((S)-1-(4-(4-methylthiazol-5-yl)phenyl)ethyl)pyrrolidine-2-carboxamide]	> 10	> 75	> 10	A (“A” indicates maximum degradation ≥75%)
Cc1ncsc1-c1ccc([C@H](C)NC(=O)[C@@H]2C[C@@H](O)CN2C(=O)C(C(C)C)n2cc(N3CCC4(CCN4c4ccc5cc(-c6ccccc6O)nnc5c4)C3)nn2)cc1 (stereo partly drawn) [Compound 264, (2S,4R)-4-hydroxy-1-(2-(4-(1-(3-(2-hydroxyphenyl)cinnolin-7-yl)-1,6-diazaspiro[3.4]octan-6-yl)-1H-1,2,3-triazol-1-yl)-3-methylbutanoyl)-N-((S)-1-(4-(4-methylthiazol-5-yl)phenyl)ethyl)pyrrolidine-2-carboxamide]		< 50	> 10	A (“A” indicates maximum degradation ≥75%)
Cc1ncsc1-c1ccc([C@H](C)NC(=O)[C@@H]2C[C@@H](O)CN2C(=O)C(C(C)C)n2cc(N3CCC34CN(c3ccc5cc(-c6ccccc6O)nnc5c3)C4)nn2)cc1 (stereo partly drawn) [Compound 265, (2S,4R)-4-hydroxy-1-(2-(4-(6-(3-(2-hydroxyphenyl)cinnolin-7-yl)-1,6-diazaspiro[3.3]heptan-1-yl)-1H-1,2,3-triazol-1-yl)-3-methylbutanoyl)-N-((S)-1-(4-(4-methylthiazol-5-yl)phenyl)ethyl)pyrrolidine-2-carboxamide]	> 100	> 75	> 100	A (“A” indicates maximum degradation ≥75%)
